# Data as given in US20100298141A1, “SUBSTITUTED PYRIDINE N-OXIDE HERBICIDES” (E. I. DU PONT DE NEMOURS AND COMPANY, priority 2007, published 2010).
# Tests used:
# [1] = tested on: barnyardgrass; experiment: Test A pre-/postemergence greenhouse test; assay type: in vivo, Echinochloa crus-galli; settings: for Plant response rating, Barnyardgrass: 0 to 100 scale where 0 is no effect and 100 is complete control; for Barnyardgrass plant response rating: 0 to 100 scale
# Procedure, shortened: (§1)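 Test compounds in non-phytotoxic solvent with surfactant were applied as a preemergence soil spray to seeded loam/sand pots and, concurrently, postemergence to plants at 2–10 cm, one- to two-leaf stage. About ten days in greenhouse, then injury visually rated against untreated controls.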
# [2] = tested on: crabgrass; experiment: Test A pre-/postemergence greenhouse test; assay type: in vivo, Digitaria sanguinalis; settings: for Plant response rating, Crabgrass, Large: 0 to 100 scale where 0 is no effect and 100 is complete control; for Crabgrass, Large plant response rating: 0 to 100 scale
# Procedure, shortened: as §1
# [3] = tested on: wheat; experiment: Test A pre-/postemergence greenhouse test; assay type: in vivo, Triticum aestivum; settings: for Plant response rating, Wheat: 0 to 100 scale where 0 is no effect and 100 is complete control; for Wheat plant response rating: 0 to 100 scale
# Procedure, shortened: as §1
# [4] = tested on: corn; experiment: Test A pre-/postemergence greenhouse test; assay type: in vivo, Zea mays; settings: for Plant response rating, Corn: 0 to 100 scale where 0 is no effect and 100 is complete control; for Corn plant response rating: 0 to 100 scale
# Procedure, shortened: as §1
# [5] = tested on: Italian ryegrass; experiment: Test C pre-/postemergence test; assay type: in vivo, Lolium multiflorum; settings: for Plant response rating, Ryegrass, Italian: 31 g ai/ha, scale 0 to 100 (0 no effect, 100 complete control)
# Procedure, shortened: (§2)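 Compounds in a non-phytotoxic solvent with surfactant applied preemergence to seeded pots and, at the same time, postemergence to plants 2–18 cm tall (1- to 4-leaf stage). Paddy tests: pots flooded to 3 cm, compound applied into the water, depth held throughout.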
# [6] = tested on: Surinam grass; experiment: Test C pre-/postemergence test; assay type: in vivo, Brachiaria decumbens; settings: for Plant response rating, Surinam Grass: 31 g ai/ha, scale 0 to 100 (0 no effect, 100 complete control)
# Procedure, shortened: as §2
# [7] = tested on: corn; experiment: Test C pre-/postemergence test; assay type: in vivo, Zea mays; settings: for Plant response rating, Corn: 31 g ai/ha, scale 0 to 100 (0 no effect, 100 complete control)
# Procedure, shortened: as §2
# [8] = tested on: crabgrass; experiment: Test C pre-/postemergence test; assay type: in vivo, Digitaria sanguinalis; settings: for Plant response rating, Crabgrass, Large: 31 g ai/ha, scale 0 to 100 (0 no effect, 100 complete control)
# Procedure, shortened: as §2
# [9] = tested on: giant foxtail; experiment: Test C pre-/postemergence test; assay type: in vivo, Setaria faberii; settings: for Plant response rating, Foxtail, Giant: 31 g ai/ha, scale 0 to 100 (0 no effect, 100 complete control)
# Procedure, shortened: as §2
# [10] = tested on: Goosegrass; experiment: Test C pre-/postemergence test; assay type: in vivo, Eleusin indica; settings: for Plant response rating, Goosegrass: 31 g ai/ha, scale 0 to 100 (0 no effect, 100 complete control)
# Procedure, shortened: as §2
# [11] = tested on: johnsongrass; experiment: Test C pre-/postemergence test; assay type: in vivo, Sorghum halepense; settings: for Plant response rating, Johnsongrass: 31 g ai/ha, scale 0 to 100 (0 no effect, 100 complete control)
# Procedure, shortened: as §2
# [12] = tested on: morningglory; experiment: Test C pre-/postemergence test; assay type: in vivo, Ipomoea coccinea
# Procedure, shortened: as §2
# [13] = tested on: eastern black nightshade; experiment: Test C pre-/postemergence test; assay type: in vivo, Solanum ptycanthum
# Procedure, shortened: as §2
# [14] = tested on: pigweed; experiment: Test C pre-/postemergence test; assay type: in vivo, Amaranthus retroflexus; settings: for Plant response rating, Pigweed: 31 g ai/ha, scale 0 to 100 (0 no effect, 100 complete control)
# Procedure, shortened: as §2
# [15] = tested on: common (oilseed) sunflower; experiment: Test C pre-/postemergence test; assay type: in vivo, Helianthus annuus
# Procedure, shortened: as §2
# [16] = tested on: velvetleaf; experiment: Test C pre-/postemergence test; assay type: in vivo, Abutilon theophrasti; settings: for Plant response rating, Velvetleaf: 31 g ai/ha, scale 0 to 100 (0 no effect, 100 complete control)
# Procedure, shortened: as §2
# [17] = tested on: umbrella sedge; experiment: Test C flooded paddy test; assay type: in vivo, Cyperus difformis; settings: Flood
# Procedure, shortened: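 Test compounds are applied straight into paddy water held 3 cm above the soil surface, with that flood maintained for the whole test. After 13 to 15 days in the greenhouse, each species is scored visually relative to controls.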
# [18] = Postemergence, 500 g ai/ha, 0 is no effect, 100 is complete control
# [19] = Preemergence, 125 g ai/ha, 0 no effect, 100 complete control
# [20] = 62 g ai/ha, Preemergence, scale 0 to 100
# [21] = 125 g ai/ha, preemergence, scale 0 (no effect) to 100 (complete control)
# [22] = preemergence, 250 g ai/ha, scale 0 (no effect) to 100 (complete control)
# [23] = 31 g ai/ha, scale 0 to 100 (0 no effect, 100 complete control)
# [24] = 125 g ai/ha, scale 0 to 100, 0 no effect, 100 complete control, 13 to 15 days
# [25] = 250 g ai/ha, scale 0 to 100, 0 no effect, 100 complete control, 13 to 15 days
# [26] = Postemergence, 125 g ai/ha, 0 is no effect, 100 is complete control
# [27] = Preemergence, 31 g ai/ha, scale 0 to 100 (0 no effect, 100 complete control)
compound,measurement,setting,value
Cn1nc(C(F)(F)F)c(C[S+]([O-])c2ccc(Cl)c[n+]2[O-])c1OCC(F)F (centres unmarked) [Compound 85],"Plant response rating, Barnyardgrass","[1]; Postemergence, 125 g ai/ha",70
same,Barnyardgrass plant response rating,[1]; [18],90
same,Barnyardgrass plant response rating,[1]; [19],70
same,"Plant response rating, Barnyardgrass","[1]; Preemergence, 500 g ai/ha",100
same,"Plant response rating, Crabgrass, Large","[2]; Postemergence, 125 g ai/ha",70
same,"Crabgrass, Large plant response rating",[2]; [18],90
same,"Crabgrass, Large plant response rating",[2]; [19],80
same,"Plant response rating, Crabgrass, Large","[2]; Preemergence, 500 g ai/ha",100
same,"Plant response rating, Wheat","[3]; Postemergence, 125 g ai/ha",60
same,Wheat plant response rating,[3]; [18],70
same,Wheat plant response rating,[3]; [19],70
same,Wheat plant response rating,"[3]; Preemergence, 500 g ai/ha, 0 no effect, 100 complete control",90
same,"Plant response rating, Corn","[4]; Postemergence, 125 g ai/ha",0
same,Corn plant response rating,[4]; [18],60
same,Corn plant response rating,[4]; [19],0
same,"Plant response rating, Corn","[4]; Preemergence, 500 g ai/ha",80
same,"Ryegrass, Italian plant response rating",[5]; [20],90
same,"Ryegrass, Italian plant response rating",[5]; [21],90
same,"Plant response rating, Ryegrass, Italian",[5]; Preemergence,80
same,"Ryegrass, Italian plant response rating",[5]; [22],100
same,Surinam Grass plant response rating,[6]; [20],95
same,Surinam Grass plant response rating,[6]; [21],100
same,"Plant response rating, Surinam Grass",[6]; Preemergence,85
same,Surinam Grass plant response rating,[6]; [22],100
same,Corn plant response rating,[7]; [20],95
same,Corn plant response rating,[7]; [21],98
same,"Plant response rating, Corn",[7]; Preemergence,95
same,Corn plant response rating,[7]; [22],99
same,"Crabgrass, Large plant response rating",[8]; [20],85
same,"Plant response rating, Crabgrass, Large",[8]; Preemergence,80
same,"Crabgrass, Large plant response rating",[8]; [22],100
same,"Foxtail, Giant plant response rating",[9]; [20],100
same,"Plant response rating, Foxtail, Giant",[9]; Preemergence,85
same,"Foxtail, Giant plant response rating",[9]; [22],100
same,Goosegrass plant response rating,[10]; [20],100
same,Goosegrass plant response rating,[10]; [21],100
same,"Plant response rating, Goosegrass",[10]; Preemergence,100
same,Goosegrass plant response rating,[10]; [22],100
same,Johnsongrass plant response rating,[11]; [20],85
same,Johnsongrass plant response rating,[11]; [21],100
same,"Plant response rating, Johnsongrass",[11]; Preemergence,85
same,Johnsongrass plant response rating,[11]; [22],100
same,Morningglory plant response rating,[12]; [20],90
same,Morningglory plant response rating,[12]; [21],90
same,Morningglory plant response rating,[12]; [22],100
same,Nightshade plant response rating,[13]; [20],85
same,Nightshade plant response rating,[13]; [21],100
same,Nightshade plant response rating,[13]; [22],100
same,Pigweed plant response rating,[14]; [20],100
same,Pigweed plant response rating,[14]; [21],100
same,"Plant response rating, Pigweed",[14]; Preemergence,100
same,Pigweed plant response rating,[14]; [22],100
same,Sunflower plant response rating,[15]; [20],30
same,Sunflower plant response rating,[15]; [21],50
same,Sunflower plant response rating,[15]; [22],80
same,Velvetleaf plant response rating,[16]; [20],70
same,Velvetleaf plant response rating,[16]; [21],95
same,"Plant response rating, Velvetleaf",[16]; Preemergence,50
same,Velvetleaf plant response rating,[16]; [22],100
same,"Plant response rating, Sedge, Umbrella",[17]; [23],0
same,"Plant response rating, Sedge, Umbrella","[17]; 62 g ai/ha, scale 0 to 100 (0 no effect, 100 complete control)",45
same,"Plant response rating, Sedge, Umbrella",[17]; [24],60
same,"Plant response rating, Sedge, Umbrella",[17]; [25],95
Cc1cc[n+]([O-])c([S+]([O-])Cc2c(C(F)(F)F)nn(C)c2OCC(F)(F)F)c1 (racemic) [Compound 30],Barnyardgrass plant response rating,[1]; [26],70
same,Barnyardgrass plant response rating,[1]; [18],90
same,Barnyardgrass plant response rating,[1]; [19],100
same,"Plant response rating, Barnyardgrass","[1]; Preemergence, 500 g ai/ha",100
same,"Crabgrass, Large plant response rating",[2]; [26],70
same,"Crabgrass, Large plant response rating",[2]; [18],90
same,"Crabgrass, Large plant response rating",[2]; [19],100
same,"Plant response rating, Crabgrass, Large","[2]; Preemergence, 500 g ai/ha",100
same,Wheat plant response rating,[3]; [26],60
same,Wheat plant response rating,[3]; [18],70
same,Wheat plant response rating,[3]; [19],80
same,"Plant response rating, Wheat","[3]; Preemergence, 500 g ai/ha",90
same,Corn plant response rating,[4]; [26],50
same,Corn plant response rating,[4]; [18],60
same,Corn plant response rating,[4]; [19],0
same,"Plant response rating, Corn","[4]; Preemergence, 500 g ai/ha",70
same,"Ryegrass, Italian plant response rating",[5]; [20],70
same,"Plant response rating, Ryegrass, Italian",[5]; Preemergence,0
same,Surinam Grass plant response rating,[6]; [20],100
same,"Plant response rating, Surinam Grass",[6]; Preemergence,60
same,Corn plant response rating,[7]; [20],40
same,"Plant response rating, Corn",[7]; Preemergence,5
same,"Plant response rating (0 to 100), Corn","[7]; Preemergence, 250 g ai/ha",98
same,Corn plant response rating,"[7]; preemergence, 125 g ai/ha, scale 0 (no effect) to 100 (complete control)",85
same,"Crabgrass, Large plant response rating",[8]; [20],98
same,"Plant response rating, Crabgrass, Large",[8]; Preemergence,98
same,"Plant response rating (0 to 100), Crabgrass, Large","[8]; Preemergence, 250 g ai/ha",100
same,"Foxtail, Giant plant response rating",[9]; [20],100
same,"Plant response rating, Foxtail, Giant",[9]; Preemergence,100
same,"Plant response rating (0 to 100), Foxtail, Giant","[9]; Preemergence, 250 g ai/ha",100
same,Goosegrass plant response rating,[10]; [20],100
same,"Plant response rating, Goosegrass",[10]; Preemergence,98
same,"Plant response rating (0 to 100), Goosegrass","[10]; Preemergence, 250 g ai/ha",100
same,Johnsongrass plant response rating,[11]; [20],100
same,"Plant response rating, Johnsongrass",[11]; Preemergence,85
same,"Plant response rating (0 to 100), Johnsongrass","[11]; Preemergence, 250 g ai/ha",100
same,Morningglory plant response rating,[12]; [20],100
same,"Plant response rating, Morningglory",[12]; [27],100
same,Nightshade plant response rating,[13]; [20],100
same,"Plant response rating, Nightshade",[13]; [27],100
same,Pigweed plant response rating,[14]; [20],100
same,"Plant response rating, Pigweed",[14]; Preemergence,100
same,Sunflower plant response rating,[15]; [20],70
same,"Plant response rating, Sunflower",[15]; [27],40
same,Velvetleaf plant response rating,[16]; [20],100
same,"Plant response rating, Velvetleaf",[16]; Preemergence,70
same,"Plant response rating, Sedge, Umbrella",[17]; [23],80
same,"Plant response rating, Sedge, Umbrella","[17]; 62 g ai/ha, scale 0 to 100, 0 no effect, 100 complete control, 13 to 15 days",100
same,"Plant response rating, Sedge, Umbrella",[17]; [24],100
same,"Plant response rating, Sedge, Umbrella",[17]; [25],100
